Legend:
stage IVB ovarian cancer = conditions: from July 2018, bicarbonate continued, before endoxan
[1] = Change in pH of urine after citrate salt or sodium bicarbonate in a person with acidic urine (Example 1)
Description: A citrate salt was administered to a person with acidic urine in accordance with the following dosage regimen, and a change in pH value of urine was then measured over time.
(1) A potassium citrate•sodium citrate hydrate 500 mg tablet (Uralyt Tablet (manufactured by Nippon Chemiphar Co., Ltd.)) is administered at 6 tablets (3 g) once a day after a meal.

[2] = 3 g once a day, compared to potassium citrate•sodium citrate hydrate

O=C([O-])O.[Na+] [sodium salt of hydrogencarbonate ions, sodium bicarbonate]
value of CA125 (stage IVB ovarian cancer): 199 | side effect observed ([1]; 3 g once a day after a meal): the patient often burped | rate of alkalization of urine [1, 2]: higher | rate of urine turning acidic again [1, 2]: higher | time during which the urine was kept alkaline [1, 2]: shorter | pH of urine / ability to keep the urine alkaline ([1]; person with acidic urine, 6 tablets (3 g) orally once a day after a meal): poorer ability to keep the urine alkaline

Reference: patent publication US11246847B2, “Anticancer drug effect enhancer” (Delta-Fly Pharma, Inc., priority 2019, dated 2022)
